In test [1] the target is T1, human TDO2 (Homo sapiens (Human), UniProt P48775). The test can be described thus: Assay for TDO2 enzymatic activity determination. Format: biochemical. To be noted: human recombinant TDO2, L-Trp 1 mM, kynurenine absorbance at 480 nm. The method, then:
The compounds of formula I inhibit the enzymatic activity of human TDO2.
To measure the TDO2 activity, the procedure described in Dolusic et al. J. Med. Chem.; 2011, 54, […] was adapted: the reaction mixture contained (final concentrations) potassium phosphate buffer (50 mM, pH 7.5), ascorbic acid (0.25 M), methylene blue (0.125 μM), catalase (40 units/mL, from bovine liver, Sigma), and human recombinant TDO2 enzyme (prepared as described in Dolusic et al. J. Med. Chem.; 2011, 54, 5320-5334; 0.9 μg) without or with the compounds of the present invention at the indicated concentrations (total volume 112.5 μL). The reaction was initiated by the addition of 37.5 μL of L-Trp (final concentration 1 mM) at room temperature. The reaction was conducted at room temperature during one hour and stopped by the addition of 30 μL of 30% (w/v) trichloroacetic acid.
To convert N-formylkynurenine into kynurenine, the reaction mixture was incubated at 65° C. for 30 min. Then 150 μL of the reaction mixture was mixed with 120 μL of 2.5% (w/v) 4-(dimethylamino)-benzaldehyde in acetic acid and incubated for 5 min at room temperature. Kynurenine concentrations were determined by measuring the absorbance at 480 nm. A standard curve was made with pure kynurenine. The TDO activity was measured as described above using ten serial concentrations of the compounds of the present invention. Data were fitted using the Prism™ software (GraphPad Software, Inc.) using standard software configurations.

In test [2] the target is T1, human TDO2. The experiment in a line: Cellular assay for TDO2 activity, hTDO2-overexpressing P815 cells. The format is cell-based. The conditions noted are these: murine mastocytoma P815 cells overexpressing hTDO2, overnight incubation, kynurenine in supernatant. The protocol:
The compounds of Formula I inhibit the activity of human TDO2 in cells.
The assay (adapted from Pilotte L et al., Proc Natl Acad Sci USA, 2012, 109(7), 2497-502) was performed in 96-well flat bottom plates seeded with murine mastocytoma P815 cells overexpressing hTDO2 (prepared as described in Pilotte et al., PNAS, 2012, 109(7), 2497-2502), at a concentration of 5×10^4 cells/well in a final volume of 200 μL. To determine TDO or IDO activity, the cells were incubated overnight at 37° C. at 5% CO2 in IMDM (Invitrogen) supplemented with 2% FBS and 2% penicillin/streptomycin in the presence of the compounds of the present invention, at different concentrations. The cells may be obtained from the American Type Cuylture Collecion [ATCC® TIB-64™ or commercially, e.g., from Sigma-Aldrich or Life Technologies.]
The plates were then centrifuged 5 min at 1000 rpm, and 100 μL of the supernatant were collected in a conical plate, 30 uL of TCA 30% were added and a further centrifugated at 3000×g for 10 minutes. 100 μL of the supernatant were collected in a flat bottomed plate and 100 μL of 2% (w/v) 4-(dimethylamino)-benzaldehyde in acetic acid and incubated for 5 min at room temperature. Kynurenine concentrations were determined by measuring the absorbance at 480 nm. A standard curve was made with pure kynurenine. The TDO activity was measured as described above using ten serial concentrations of the compounds of the present invention. Data were fitted using the Prism™ software (GraphPad Software, Inc.) using standard software configurations.

Test [3] deals with T1, human TDO2. The test can be described thus: Cellular assay for TDO2 activity, A172 cells naturally expressing hTDO2. The conditions noted are these: human glioblastoma A172 cells, overnight incubation, kynurenine in supernatant. The format is cell-based.
Test [4] has as its target TDO2 (Mus musculus (Mouse), UniProt P48776). The test can be described thus: Pharmacodynamic assay for TDO2 in vivo activity: increase of blood tryptophan levels in mice. To be noted: female BALB/c mice, 2 h. An excerpt: The compounds of the present invention increase the amount of Tryptophan in mouse blood.

7 molecules from patent US9758505B2, “3-(indol-3-yl)-pyridine derivatives, pharmaceutical compositions and methods for use” (ITEOS THERAPEUTICS, priority 2014, dated 2017) can be followed below.

One may read the IC50 as the concentration needed to halve the response being measured.

TDO2, sequence (P48776 whole entry): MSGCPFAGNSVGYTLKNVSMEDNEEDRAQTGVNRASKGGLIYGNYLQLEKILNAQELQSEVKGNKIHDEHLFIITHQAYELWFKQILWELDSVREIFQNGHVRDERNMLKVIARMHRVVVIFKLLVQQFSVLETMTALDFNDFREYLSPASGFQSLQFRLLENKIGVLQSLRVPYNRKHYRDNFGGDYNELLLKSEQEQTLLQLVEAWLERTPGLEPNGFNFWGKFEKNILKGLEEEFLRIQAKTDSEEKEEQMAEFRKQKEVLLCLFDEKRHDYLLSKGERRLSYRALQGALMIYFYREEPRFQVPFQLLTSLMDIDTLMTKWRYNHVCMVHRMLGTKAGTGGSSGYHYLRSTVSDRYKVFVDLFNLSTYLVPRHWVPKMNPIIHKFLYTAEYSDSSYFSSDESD
T1 sequence (P48775 whole entry): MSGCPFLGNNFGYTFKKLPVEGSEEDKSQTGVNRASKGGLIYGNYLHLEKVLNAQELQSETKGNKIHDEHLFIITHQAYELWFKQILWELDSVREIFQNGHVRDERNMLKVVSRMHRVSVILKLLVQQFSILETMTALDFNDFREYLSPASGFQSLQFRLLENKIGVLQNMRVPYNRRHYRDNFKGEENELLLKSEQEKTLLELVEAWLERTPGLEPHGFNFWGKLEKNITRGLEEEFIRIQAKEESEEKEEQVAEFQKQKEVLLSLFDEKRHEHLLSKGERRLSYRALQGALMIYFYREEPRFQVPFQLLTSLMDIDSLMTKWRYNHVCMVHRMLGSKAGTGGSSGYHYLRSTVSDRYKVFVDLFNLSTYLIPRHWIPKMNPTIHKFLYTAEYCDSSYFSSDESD

For `CNc1ccc(-c2c[nH]c3cc(F)ccc23)cn1` [Example 34, 5-(6-fluoro-1H-indol-3-yl)-N-methylpyridin-2-amine], the results for the IC50 in test [1], in test [2] and in test [3] were 290 nM, 240 nM and 1600 nM, respectively.
As for `CS(=O)(=O)NC1CCN(c2ccc(-c3c[nH]c4cc(F)ccc34)cn2)CC1` [Example 14, N-(1-(5-(6-fluoro-1H-indol-3-yl)pyridin-2-yl)piperidin-4-yl)methanesulfonamide], the half-maximal inhibitory concentration (IC50) in test [1] amounted to 970 nM; in test [2] it was 610 nM; in test [3] it was 1800 nM. Also, the “Tryptophan concentration in plasma (average ± standard error of the mean)” value was 27976 ± 1196 in test [4] (30 mg/kg oral gavage), 33862 ± 1529 in test [4] (60 mg/kg oral gavage) and 35716 ± 1663 in test [4] (100 mg/kg oral gavage). Also, the figures for the “increase of circulating Tryptophan compared to vehicle-treated controls” value in test [4] (30 mg/kg oral gavage), in test [4] (60 mg/kg oral gavage) and in test [4] (100 mg/kg oral gavage) were 33%, 61% and 70%, respectively.
For `Fc1ccc2c(-c3cccnc3)c[nH]c2c1` [Example 44, 6-fluoro-3-(pyridin-3-yl)-1H-indole], the results for the 50% inhibitory concentration (IC50) in test [1], in test [2] and in test [3] were 850 nM, 68 nM and 600 nM, respectively.
With `CN(C)CCOc1ccc(-c2c[nH]c3cc(F)ccc23)cn1` [Example 4, 2-(5-(6-fluoro-1H-indol-3-yl)pyridin-2-yloxy)-N,N-dimethylethanamine], the half-inhibitory concentration (IC50) in test [1] worked out at 39000 nM; in test [2], 680 nM.
For the molecule `CC(=O)Nc1ccc(-c2c[nH]c3cc(F)ccc23)cn1` [Example 40, N-(5-(6-fluoro-1H-indol-3-yl)pyridin-2-yl)acetamide], the values for the IC50 in test [1], in test [2] and in test [3] were 1000 nM, 150 nM and 130 nM, respectively.
Regarding `Cc1ccncc1-c1c[nH]c2cc(F)ccc12` [Example 46, 6-fluoro-3-(4-methylpyridin-3-yl)-1H-indole], the IC50 in test [1] is 13000 nM; in test [2], 670 nM.
With `CN1CCN(c2ccc(-c3c[nH]c4cc(F)ccc34)cn2)CC1` [Example 10, 6-fluoro-3-(6-(4-methylpiperazin-1-yl)pyridin-3-yl)-1H-indole], the IC50 in test [1] came out at 720 nM; in test [2], 130 nM.
